Experimental findings from US20240166652A1, “MODULATORS OF THE INTEGRATED STRESS PATHWAY” (Calico Life Sciences LLC, priority 2017, published 2024) are described below.

For orientation: EC50 means the concentration that produces a half-maximal response.

The subject of this assay is ATF4 luciferase reporter in HEK293T cells. Put plainly: ATF4-Luc assay (ATF4 luciferase reporter, tunicamycin-treated HEK293T cells). The note with it: Homo sapiens, HEK-293T; HEK293T cells carrying the ATF4 luciferase reporter, 1 μg/mL tunicamycin, 7 hours. The class given is cell-based, human. Background: A reporter such as luciferase makes a cellular process visible.

On to `O=C(CNc1ccc(Cl)cc1)NC12CC(NC(=O)COc3ccc(Cl)c(F)c3)(C1)C2` [Compound 203, N-{3-[2-(4-chloro-3-fluorophenoxy)acetamido]bicyclo[1.1.1]pentan-1-yl}-N^2-(4-chlorophenyl)glycinamide], for which the EC50 lay within 0.05 to 0.25 µM.

Take `O=C(COc1ccc(Cl)c(F)c1)NC12CC(NS(=O)(=O)Cc3ccc(F)c(F)c3)(C1)C2` [Compound 483, 2-(4-chloro-3-fluorophenoxy)-N-(3-{[(3,4-difluorophenyl)methanesulfonyl]amino}bicyclo[1.1.1]pentan-1-yl)acetamide]: the EC50 is greater than 2 µM.

Consider `O=C(COc1ccc(OC(F)(F)F)cc1)NC12CCC(NC(=O)COc3ccc(Cl)c(F)c3)(CC1)[C@@H](O)C2` [Compound 473, 2-(4-chloro-3-fluorophenoxy)-N-[(2S)-2-hydroxy-4-{2-[4-(trifluoromethoxy)phenoxy]acetamido}bicyclo[2.2.2]octan-1-yl]acetamide], for which the EC50 was less than 0.01 µM.

With `O=C(CC(=O)c1ccc(Cl)cc1)NC12CCC(NC(=O)COc3ccc(Cl)c(F)c3)(CC1)[C@@H](O)C2` [Compound 807, N-{(3S)-4-[2-(4-chloro-3-fluorophenoxy)acetamido]-3-hydroxybicyclo[2.2.2]octan-1-yl}-3-(4-chlorophenyl)-3-oxopropanamide], the EC50 lay within 0.01 to 0.05 µM.

On to `O=C(COc1ccc(Cl)cc1)NC12CCC(NC(=O)COc3ccc(Cl)cc3)(CC1)C2` [Compound 527, N,N′-(bicyclo[2.2.1]heptane-1,4-diyl)bis[2-(4-chlorophenoxy)acetamide]], for which the EC50 lay within 0.01 to 0.05 µM.

In the case of `O=C(COc1ccc(Cl)c(F)c1)NC12CC(NC(=O)CC(=O)c3ccc(Cl)cc3)(C1)C2` [Compound 293, N-{3-[2-(4-chloro-3-fluorophenoxy)acetamido]bicyclo[1.1.1]pentan-1-yl}-3-(4-chlorophenyl)-3-oxopropanamide], the EC50 was in the range of 0.25 to 0.5 µM.

In the case of `O=C(CC(NC1COC1)c1ccc(Cl)cc1)NC12CCC(NC(=O)COc3ccc(Cl)c(F)c3)(CC1)[C@@H](O)C2` (stereo partly drawn) [Compound 713, N-{(3S)-4-[2-(4-chloro-3-fluorophenoxy)acetamido]-3-hydroxybicyclo[2.2.2]octan-1-yl}-3-(4-chlorophenyl)-3-[(oxetan-3-yl)amino]propanamide], the EC50 was greater than 2 µM.

On to `O=C(COc1ccc(F)cc1)NC12CC(NC(=O)COc3ccc(Cl)cc3)(C1)C2` [Compound 120, 2-(4-chlorophenoxy)-N-{3-[2-(4-fluorophenoxy)acetamido]bicyclo-[1.1.1]pentan-1-yl}acetamide], for which the concentration for a half-maximal effect (EC50) lay within 0.01 to 0.05 µM.

On to `O=C(COc1ccc(C(F)(F)F)nc1)NC12CCC(NC(=O)COc3ccc(Cl)c(Cl)c3)(CC1)[C@@H](O)C2` [Compound 583, 2-(3,4-dichlorophenoxy)-N-[(2S)-2-hydroxy-4-(2-{[6-(trifluoromethyl)pyridin-3-yl]oxy}acetamido)bicyclo[2.2.2]octan-1-yl]acetamide], for which the EC50 is less than 0.01 µM.

On to `O=C(COc1ccc(Cl)c(Cl)c1)NC12CCCC(NC(=O)OCc3ccccc3)(C1)C2` [Compound 194, benzyl {5-[2-(3,4-dichlorophenoxy)acetamido]bicyclo[3.1.1]heptan-1-yl}carbamate], for which the EC50 is greater than 2 µM.

As for `O=C(COc1ccc(Cl)c(F)c1)NC12CC(NC(=O)COc3cnn(CC(F)(F)F)c(=O)c3)(C1)C2` [Compound 310, 2-(4-chloro-3-fluorophenoxy)-N-[3-(2-{[6-oxo-1-(2,2,2-trifluoroethyl)-1,6-dihydropyridazin-4-yl]oxy}acetamido)bicyclo[1.1.1]pentan-1-yl]acetamide], the EC50 was 0.05 to 0.25 µM.

For the compound `Nc1cc(OCC(=O)NC23CC(NC(=O)COc4ccc(Cl)c(F)c4)(C2)C3)ccc1Cl` [Compound 228, 2-(3-amino-4-chlorophenoxy)-N-{3-[2-(4-chloro-3-fluorophenoxy)acetamido]-bicyclo[1.1.1]pentan-1-yl}acetamide], the EC50 was less than 0.01 µM.

As for `O=C(COc1ccc(F)c(F)c1)NC12CCC(NC(=O)COc3ccc(F)c(OC(F)(F)F)c3)(CC1)[C@@H](O)C2` [Compound 812, 2-(3,4-difluorophenoxy)-N-[(3S)-4-{2-[4-fluoro-3-(trifluoromethoxy)phenoxy]acetamido}-3-hydroxybicyclo[2.2.2]octan-1-yl]acetamide], the EC50 is less than 0.01 µM.

Turning to `O=C(COc1ccc(Cl)c(F)c1)NC12CC(NS(=O)(=O)Cc3cccc(C(F)(F)F)c3)(C1)C2` [Compound 428, 2-(4-chloro-3-fluorophenoxy)-N-[3-({[3-(trifluoromethyl)phenyl]methanesulfonyl}amino)bicyclo[1.1.1]pentan-1-yl]acetamide], the EC50 fell in the range of 0.5 to 2 µM.

`O=C(COc1ccc(Cl)c(Cl)c1)NC12CC(NCCOc3ccc(Cl)c(Cl)c3)(C1)C2` [Compound 125, 2-(3,4-dichlorophenoxy)-N-(3-{[2-(3,4-dichlorophenoxy)ethyl]amino}-bicyclo[1.1.1]pentan-1-yl)acetamide]: the EC50 is less than 0.01 µM.

As for `O=C(COc1ccc(Cl)c(F)c1)NC12CC(NCC(O)c3ccc(Cl)c(F)c3)(C1)C2` (stereo not shown) [Compound 292, 2-(4-chloro-3-fluorophenoxy)-N-(3-{[2-(4-chloro-3-fluorophenyl)-2-hydroxyethyl]amino}bicyclo[1.1.1]pentan-1-yl)acetamide], the EC50 is 0.5 to 2 µM.

Regarding `O=C(COc1ccc(Cl)c(F)c1)NC12CCC(O)C(NC(=O)COc3ccc(Cl)c(F)c3)(CC1)C2` (stereo not shown) [Compound 670, N,N′-(2-hydroxybicyclo[3.2.1]octane-1,5-diyl)bis[2-(4-chloro-3-fluorophenoxy)acetamide]], the EC50 lay in the range of 0.5 to 2 µM.

As to `COc1ccc(CNC23CCC(NC(=O)COc4ccc(Cl)c(F)c4)(CC2)C(O)C3)cc1` (stereo not shown) [Compound 314, 2-(4-chloro-3-fluorophenoxy)-N-(2-hydroxy-4-{[(4-methoxyphenyl)methyl]amino}bicyclo[2.2.2]octan-1-yl)acetamide], the EC50 was greater than 2 µM.

On to `O=C(COc1ccc(Cl)c(F)c1)NC12CCC(NCCOc3ccc(F)cc3)(CC1)C(O)C2` (stereo not shown) [Compound 331, 2-(4-chloro-3-fluorophenoxy)-N-(4-{[2-(4-fluorophenoxy)ethyl]amino}-3-hydroxybicyclo[2.2.2]octan-1-yl)acetamide], for which the EC50 was less than 0.01 µM.

In the case of `O=C(COc1ccc2c(c1)OC(F)(F)C(F)(F)O2)NC12CCC(NC(=O)COc3ccc(Cl)c(F)c3)(CC1)C(=O)N2` [Compound 689, 2-(4-chloro-3-fluorophenoxy)-N-(3-oxo-1-{2-[(2,2,3,3-tetrafluoro-2,3-dihydro-1,4-benzodioxin-6-yl)oxy]acetamido}-2-azabicyclo[2.2.2]octan-4-yl)acetamide], the EC50 fell in the range of 0.05 to 0.25 µM.

`N#CC1CC2(NC(=O)COc3ccc(Cl)c(F)c3)CCC1(NC(=O)COc1ccc(Cl)c(F)c1)CC2` (stereo not shown) [Compound 387, N,N′-(2-cyanobicyclo[2.2.2]octane-1,4-diyl)bis[2-(4-chloro-3-fluorophenoxy)acetamide]]: the EC50 is less than 0.01 µM.

`O=C(COc1ccc(Cl)c(F)c1)NC12CC(NC(=O)COc3ccc(Cl)cn3)(C1)C2` [Compound 213, 2-(4-chloro-3-fluorophenoxy)-N-(3-{2-[(5-chloropyridin-2-yl)oxy]acetamido}bicyclo[1.1.1]pentan-1-yl)acetamide]: the concentration for a half-maximal effect (EC50) was in the range of 0.05 to 0.25 µM.

Take `Cc1cnc(OCC(=O)NC23CCC(NC(=O)COc4ccc(Cl)c(F)c4)(CC2)[C@@H](O)C3)s1` [Compound 575, 2-(4-chloro-3-fluorophenoxy)-N-[(2S)-2-hydroxy-4-{2-[(5-methyl-1,3-thiazol-2-yl)oxy]acetamido}bicyclo[2.2.2]octan-1-yl]acetamide]: the EC50 is greater than 2 µM.

Regarding `O=C(COc1ccc(F)c(F)c1)NC12CCC(NC(=O)COc3cccc(C(F)(F)F)c3)(CC1)[C@@H](O)C2` [Compound 809, 2-(3,4-difluorophenoxy)-N-[(3S)-3-hydroxy-4-{2-[3-(trifluoromethyl)phenoxy]acetamido}bicyclo[2.2.2]octan-1-yl]acetamide], the EC50 is less than 0.01 µM.

Regarding `O=C(COc1ccc(F)c(F)c1)NC12CCC(NC(=O)COc3ccc(F)c(OC(F)F)c3)(CC1)[C@@H](O)C2` [Compound 796, 2-[3-(difluoromethoxy)-4-fluorophenoxy]-N-{(2S)-4-[2-(3,4-difluorophenoxy)acetamido]-2-hydroxybicyclo[2.2.2]octan-1-yl}acetamid6], the EC50 lay within 0.01 to 0.05 µM.

With `COc1ncc(OCC(=O)NC23CCC(NC(=O)COc4ccc(Cl)c(F)c4)(CC2)C(=O)C3)cn1` [Compound 655, 2-(4-chloro-3-fluorophenoxy)-N-(4-{2-[(2-methoxypyrimidin-5-yl)oxy]acetamido}-2-oxobicyclo[2.2.2]octan-1-yl)acetamide], the EC50 lay in the range of 0.01 to 0.05 µM.

For `O=C(COc1ccc(Cl)c(F)c1)NC12CC(NC(=O)COc3ccccc3OCCO)(C1)C2` [Compound 805, 2-(4-chloro-3-fluorophenoxy)-N-(3-{2-[2-(2-hydroxyethoxy)phenoxy]acetamido}bicyclo[1.1.1]pentan-1-yl)acetamide], the EC50 is 0.5 to 2 µM.

In the case of `O=C(COc1ccc(C(F)(F)F)nc1)NC12CCC(NC(=O)COc3ccc(Cl)c(F)c3)(CC1)[C@@H](O)C2` [Compound 589, 2-(4-chloro-3-fluorophenoxy)-N-[(2S)-2-hydroxy-4-(2-{[6-(trifluoromethyl)pyridin-3-yl]oxy}acetamido)bicyclo[2.2.2]octan-1-yl]acetamide], the EC50 is less than 0.01 µM.

Regarding `O=C(COc1ccc(Cl)c(Cl)c1)NC12CC(NC(=O)COc3ccc(Cl)c(Cl)c3)(C1)C2` [Compound 106, N,N′-(bicyclo[1.1.1]pentane-1,3-diyl)bis[2-(3,4-dichlorophenoxy)acetamide]], the EC50 was less than 0.01 µM.

Regarding `O=C(COc1ccc(Cl)c(F)c1)NC12CCC(NC(=O)COc3ccc(F)c(OC(F)F)c3)(CC1)[C@@H](O)C2` [Compound 795, 2-(4-chloro-3-fluorophenoxy)-N-[(3S)-4-{2-[3-(difluoromethoxy)-4-fluorophenoxy]acetamido}-3-hydroxybicyclo[2.2.2]octan-1-yl]acetamide], the EC50 is less than 0.01 µM.

With `CC(C)(O)C1CC2(NC(=O)COc3ccc(Cl)c(F)c3)CCC1(NC(=O)COc1ccc(Cl)c(F)c1)CC2` (stereo not shown) [Compound 566, N,N′-[2-(2-hydroxypropan-2-yl)bicyclo[2.2.2]octane-1,4-diyl]bis[2-(4-chloro-3-fluorophenoxy)acetamide]], the EC50 was 0.01 to 0.05 µM.
